Laboratory results as given in the NIST ThermoML archive (doi:10.1021/je200121f).

Key:
[1] = xn = mol fraction of the nth substance listed; settings: for surface tension liquid-gas: Ring tensiometer; for viscosity / speed of sound / mass density: 101 kPa, Liquid; for viscosity: Capillary tube (Ostwald / Ubbelohde) method; for speed of sound: Sing-around technique in a fixed-path interferometer; for mass density: Vibrating tube method
[2] = refractive index (Na D-line) (dimensionless); xn = mol fraction of the nth substance listed; settings: 101 kPa, Liquid, Standard Abbe refractometry

C[C@H](O)CN [(2S)-1-amino-2-propanol] + CN1CCCC1=O
Settings | mass density, [1] [kg/m3] | refractive index, [2] | speed of sound, [1] [m/s] | surface tension liquid-gas, [1] [mN/m] | viscosity, [1] [mPa·s]
293.15 K, x2 = 0 | 960.8 | 1.448 | 1560.8 | 37.6 | 31.67
293.15 K, x2 = 0.1034 | 968.2 | 1.4503 | 1553.5 | 38.1 | 18.96
293.15 K, x2 = 0.2008 | 975.3 | 1.4523 | 1549.1 | 38.5 | 12.72
293.15 K, x2 = 0.3001 | 982.8 | 1.4545 | 1547.5 | 39 | 8.746
293.15 K, x2 = 0.4002 | 989.5 | 1.4567 | 1546 | 39.5 | 7.694
293.15 K, x2 = 0.4978 | 996.5 | 1.4585 | 1546.2 | 40 | 6.542
293.15 K, x2 = 0.5943 | 1003.3 | 1.4607 | 1547.4 | 40.7 | 5.578
293.15 K, x2 = 0.7 | 1010.9 | 1.4632 | 1550.9 | 41.2 | 4.249
293.15 K, x2 = 0.7993 | 1018.1 | 1.4655 | 1554.8 | 41.5 | 3.533
293.15 K, x2 = 0.8913 | 1025 | 1.4675 | 1559.4 | 42.1 | 3.098
303.15 K, x2 = 0 | 952.8 | 1.4442 | 1528.3 | 36.9 | 17.71
303.15 K, x2 = 0.1034 | 960 | 1.4464 | 1519.6 | 37.3 | 11.49
303.15 K, x2 = 0.2008 | 966.9 | 1.4484 | 1514.7 | 37.8 | 8.051
303.15 K, x2 = 0.3001 | 974.2 | 1.4505 | 1511.8 | 38.3 | 5.78
303.15 K, x2 = 0.4002 | 980.8 | 1.4527 | 1510 | 38.8 | 5.21
303.15 K, x2 = 0.4978 | 987.7 | 1.4547 | 1509.4 | 39.2 | 4.723
303.15 K, x2 = 0.5943 | 994.5 | 1.4567 | 1510.3 | 39.5 | 4.271
303.15 K, x2 = 0.7 | 1002 | 1.4591 | 1512.8 | 40.1 | 3.395
303.15 K, x2 = 0.7993 | 1009.2 | 1.4614 | 1516.8 | 40.7 | 2.909
303.15 K, x2 = 0.8913 | 1016.1 | 1.4635 | 1520.6 | 41 | 2.576
313.15 K, x2 = 0 | 944.7 | 1.4401 | 1495.7 | 36.3 | 10.65
313.15 K, x2 = 0.1034 | 951.7 | 1.4423 | 1486 | 36.8 | 7.301
313.15 K, x2 = 0.2008 | 958.4 | 1.4445 | 1480.5 | 37.3 | 5.308
313.15 K, x2 = 0.3001 | 965.6 | 1.4464 | 1476.6 | 37.7 | 4.045
313.15 K, x2 = 0.4002 | 972.1 | 1.4488 | 1474.8 | 38.1 | 3.725
313.15 K, x2 = 0.4978 | 978.8 | 1.4506 | 1472.8 | 38.7 | 3.448
313.15 K, x2 = 0.5943 | 985.6 | 1.4528 | 1473.5 | 39 | 3.375
313.15 K, x2 = 0.7 | 993.1 | 1.4548 | 1475.4 | 39.5 | 2.775
313.15 K, x2 = 0.7993 | 1000.3 | 1.4572 | 1479.1 | 40.2 | 2.458
313.15 K, x2 = 0.8913 | 1007.2 | 1.4594 | 1482.6 | 40.4 | 2.168
323.15 K, x2 = 0 | 936.5 | 1.436 | 1462.9 | 35.9 | 6.961
323.15 K, x2 = 0.1034 | 943.2 | 1.4382 | 1452.1 | 36.2 | 4.793
323.15 K, x2 = 0.2008 | 949.8 | 1.4401 | 1446 | 36.6 | 3.499
323.15 K, x2 = 0.3001 | 956.9 | 1.4421 | 1441.6 | 37.1 | 2.939
323.15 K, x2 = 0.4002 | 963.3 | 1.4442 | 1440.5 | 37.6 | 2.649
323.15 K, x2 = 0.4978 | 969.9 | 1.4464 | 1436.8 | 38 | 2.438
323.15 K, x2 = 0.5943 | 976.7 | 1.4482 | 1436.8 | 38.4 | 2.731
323.15 K, x2 = 0.7 | 984.2 | 1.4506 | 1438.4 | 38.8 | 2.317
323.15 K, x2 = 0.7993 | 991.4 | 1.4529 | 1441.7 | 39.2 | 2.073
323.15 K, x2 = 0.8913 | 998.2 | 1.4552 | 1445.1 | 39.5 | 1.861
